Test results reported in patent US20260297027A1, “Non-Peptide Small Molecule FGF14:Nav1.6 Channel Complex Protein-Protein Interaction Modulators” (The Board of Regents of The University of Texas System, priority 2023, published 2026).
“Also recorded” adds a separate entry of the source.

Assays:
FGF14 = molecular target: T1, FGF14 (Homo sapiens, UniProt Q92915); assay: Surface plasmon resonance (SPR), FGF14; format: binding
T1 sequence (Q92915 1-252 isoform Q92915-2): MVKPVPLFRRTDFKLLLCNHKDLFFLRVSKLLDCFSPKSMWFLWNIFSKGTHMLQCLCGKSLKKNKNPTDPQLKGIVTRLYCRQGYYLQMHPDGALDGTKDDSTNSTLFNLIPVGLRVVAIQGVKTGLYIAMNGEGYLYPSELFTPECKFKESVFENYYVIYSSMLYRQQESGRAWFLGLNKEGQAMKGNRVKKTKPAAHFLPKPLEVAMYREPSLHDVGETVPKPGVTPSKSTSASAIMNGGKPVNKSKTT
Protocol: (§1) Secondary bioactivity assays: Surface plasmon resonance (SPR). Analogues were then tested using SPR against FGF14 and Nav1.6-C-terminal tail purified proteins, the gold standard for protein binding studies. SPR experiments were used to quantitatively assess the binding affinity of analogues, serving as both a secondary bioactivity assay to determine accurate binding affinities for protein:ligand interactions via KD, Kon and Koff, as well as to assess the compound's ability to disrupt PPI. The reliability of the model, goodness of fit, and reported kinetic and binding constants were validated by varying flow rates, immobilization densities, or different chips. Statistical analysis was conducted by visually inspecting the goodness of fit of the data from the residuals. Additionally, c2 was used as a global measure for residual noise; standard deviation was used to report errors in measurements by repeating the experiment at least three times.
FIGS. 2A and 2B summarize selectivity and orthogonal validation of hits from the screening assay. […] Compounds that modulated complex assembly by ≥25% were excluded from further studies. Referring to FIG. 2B, the remaining 5 selective hits were then quantitatively assessed using SPR. Binding sensorgrams are shown for FGF14 (left) and Nav1.6 (middle) and normalized steady-state saturation plots (right) reveal differences in compound:protein binding affinities. Kinetic analysis of each ligand/analyte interaction was obtained by fitting the response data to the simplest Langmuir 1:1 interaction model (KD=koff/kon).
Referring to FIG. 2B, the remaining 5 selective hits were then quantitatively assessed using SPR. Binding sensorgrams are shown for FGF14 (left) and Nav1.6 (middle) and normalized steady-state saturation plots (right) reveal differences in compound:protein binding affinities. Kinetic analysis of each ligand/analyte interaction was obtained by fitting the response data to the simplest Langmuir 1:1 interaction model (KD=koff/kon).

Nav1.6 = molecular target: T2, Nav1.6 (Homo sapiens, UniProt Q9UQD0); assay: Surface plasmon resonance (SPR), Nav1.6-C-terminal tail; format: binding; conditions: Langmuir 1:1 interaction model (KD=koff/kon)
T2 construct: SPR against FGF14 and Nav1.6-C-terminal tail purified proteins
Protocol: as §1
FIGS. 2A and 2B summarize selectivity and orthogonal validation of hits from the screening assay. […] Compounds that modulated complex assembly by ≥25% were excluded from further studies. Referring to FIG. 2B, the remaining 5 selective hits were then quantitatively assessed using SPR. […]
Referring to FIG. 2B, the remaining 5 selective hits were then quantitatively assessed using SPR. […]

FGF14:Nav1.6 complex = molecular target: T3, FGF14:Nav1.6 complex (Homo sapiens, UniProt Q92915+Q9UQD0); assay: Split-luciferase complementation assay (LCA); format: cell-based
T3 construct: split firefly luciferase complementation
From the text: To identify small molecule probes targeting the FGF14:Nav1.6 PPI interface, the FGF14:Nav1.6 complex was reconstituted using the split-luciferase complementation assay (LCA), and a candidate pool of ~45,000 commercially available compounds was screened. An established screening pipeline was employed to validate hits. […] FIG. 1B summarizes exclusion of compounds based on the CellTiter Blue (CTB) cell viability fluorescence assay.
Primary assays: Split-luciferase complementation assay (LCA). The primary assay to detect FGF14:Nav1.6 complex formation in real-time in living cells is the split-luciferase complementation assay (LCA), which has been designed and successfully implemented specifically to study PPI between the Nav channel and iFGFs. With LCA, in-cell reconstitution of the FGF14:Nav1.6 channel complex was detected upon addition of the D-luciferin substrate, as a robust light signal representing the strength of interaction between the two binding partners. […] The high signal-to-noise ratio, favorable dynamic range, and reversibility of luminescence-based signals make LCA the ideal for HTS of potential regulators, as well as rapid dose-dependency studies (≥8 concentrations) to help guide subsequent in-depth hit validation using more labor-intensive approaches. […]

[1] = system: Nav1.6 (cells stably expressing Nav1.6 and FGF14-GFP); assay: Patch-clamp electrophysiology in heterologous cells expressing Nav1.6 and FGF14; format: cell-based; conditions: 1 μM
Protocol: (§2) Confirmatory assays: Automated and manual patch-clamp electrophysiology in heterologous cells. Patch-clamp electrophysiology is a rigorous, sophisticated confirmatory and orthogonal assay that serves to assess compound functional activity, mechanism of action, specificity, and selectivity toward various Nav isoforms. It is highly predictive of in vivo efficacy of compounds. In this assay, compounds are tested in cells stably expressing FGF14 and Nav1.6 or other relevant iFGF:Nav channel pairs. Initially screened with an automated planar patch-clamp system, compounds were tested with an 8-point dose-response in 384-well plates with a throughput of >2,000 data sets/week. Compounds were then confirmed with manual patch-clamp at targeted concentrations. A multitude of physiological parameters of Nav channels including Na+ current amplitude, kinetics, voltage-dependence, use-dependency, and time-dependency reflecting the channel closed, opened, and inactivated states were automatically measured using specialized software (i.e., CLAMPEX). Data were typically derived from n=10-20 recordings, N=3 batches of cells. Data were compared using either Student's t-test or two-way ANOVA mixed model.
(§3) Functional activity of Compound PW01028. To study compound PW01028 functional activity against Nav1.6-encoded currents were studied in heterologous cells stably expressing Nav1.6 and/or FGF14-GFP (FIGURE). […]

[2] = molecular target: T4, Nav1.6 (HEK-Nav1.6 expressing GFP control) (Homo sapiens, UniProt Q9UQD0); assay: Patch-clamp electrophysiology in HEK-Nav1.6 cells expressing the GFP control construct; format: cell-based; conditions: HEK-Nav1.6 expressing the GFP control construct; in words
T4 construct: patch clamp
Protocol: as §2, §3

[3] = system: medium spiny neurons (MSN), Fgf14^+/+; assay: Patch-clamp electrophysiology in brain slices, MSN of NAc from Fgf14+/+ mice; format: cell-based; conditions: 1 micromolar, in words
Protocol: (§4) Patch-clamp electrophysiology in brain slices. This assay provides a critical confirmatory step from the heterologous cell to the native system. With this assay, selected compounds were tested (typically, 3 concentrations) for their modulatory effects on MSN firing and Na+ currents using current clamp and voltage clamp recordings Parameters of interest included action potential threshold, amplitude, rise time, firing frequency, amplitude of Na+ currents and passive properties (i.e., Rseries, Rinput, Vm). Not only is this assay predictive of a compound's in vivo activity, it provides an assessment of potential toxicity and side effects based on secondary measurements (i.e., frequency, amplitude, and kinetics of synaptic potentials, Rinput, Vm). This assay was also used as the first target validation step in native tissue as compounds are concomitantly tested in neurons from Fgf14^−/− mice. Recordings were conducted from at least N=3 animals, n=10-15 recordings; effect is calculated using ANOVA mixed model.
(§5) Target validation of compound PW01028 in NAc slices.

[4] = system: medium spiny neurons (MSN), Fgf14^−/−; assay: Patch-clamp electrophysiology in brain slices, MSN of NAc from Fgf14-/- mice; format: cell-based; conditions: n=7-8/group, p>0.05, in words
Protocol: as §4, §5

T3 sequence (Q9UQD0 1763-1980 limits assumed, one chain of several): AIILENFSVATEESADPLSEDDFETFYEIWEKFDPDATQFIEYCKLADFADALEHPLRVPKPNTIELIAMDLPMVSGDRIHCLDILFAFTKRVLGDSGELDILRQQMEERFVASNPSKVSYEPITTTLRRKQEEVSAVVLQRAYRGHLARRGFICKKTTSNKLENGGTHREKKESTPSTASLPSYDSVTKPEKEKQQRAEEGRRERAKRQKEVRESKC
T4 sequence (Q9UQD0 whole entry): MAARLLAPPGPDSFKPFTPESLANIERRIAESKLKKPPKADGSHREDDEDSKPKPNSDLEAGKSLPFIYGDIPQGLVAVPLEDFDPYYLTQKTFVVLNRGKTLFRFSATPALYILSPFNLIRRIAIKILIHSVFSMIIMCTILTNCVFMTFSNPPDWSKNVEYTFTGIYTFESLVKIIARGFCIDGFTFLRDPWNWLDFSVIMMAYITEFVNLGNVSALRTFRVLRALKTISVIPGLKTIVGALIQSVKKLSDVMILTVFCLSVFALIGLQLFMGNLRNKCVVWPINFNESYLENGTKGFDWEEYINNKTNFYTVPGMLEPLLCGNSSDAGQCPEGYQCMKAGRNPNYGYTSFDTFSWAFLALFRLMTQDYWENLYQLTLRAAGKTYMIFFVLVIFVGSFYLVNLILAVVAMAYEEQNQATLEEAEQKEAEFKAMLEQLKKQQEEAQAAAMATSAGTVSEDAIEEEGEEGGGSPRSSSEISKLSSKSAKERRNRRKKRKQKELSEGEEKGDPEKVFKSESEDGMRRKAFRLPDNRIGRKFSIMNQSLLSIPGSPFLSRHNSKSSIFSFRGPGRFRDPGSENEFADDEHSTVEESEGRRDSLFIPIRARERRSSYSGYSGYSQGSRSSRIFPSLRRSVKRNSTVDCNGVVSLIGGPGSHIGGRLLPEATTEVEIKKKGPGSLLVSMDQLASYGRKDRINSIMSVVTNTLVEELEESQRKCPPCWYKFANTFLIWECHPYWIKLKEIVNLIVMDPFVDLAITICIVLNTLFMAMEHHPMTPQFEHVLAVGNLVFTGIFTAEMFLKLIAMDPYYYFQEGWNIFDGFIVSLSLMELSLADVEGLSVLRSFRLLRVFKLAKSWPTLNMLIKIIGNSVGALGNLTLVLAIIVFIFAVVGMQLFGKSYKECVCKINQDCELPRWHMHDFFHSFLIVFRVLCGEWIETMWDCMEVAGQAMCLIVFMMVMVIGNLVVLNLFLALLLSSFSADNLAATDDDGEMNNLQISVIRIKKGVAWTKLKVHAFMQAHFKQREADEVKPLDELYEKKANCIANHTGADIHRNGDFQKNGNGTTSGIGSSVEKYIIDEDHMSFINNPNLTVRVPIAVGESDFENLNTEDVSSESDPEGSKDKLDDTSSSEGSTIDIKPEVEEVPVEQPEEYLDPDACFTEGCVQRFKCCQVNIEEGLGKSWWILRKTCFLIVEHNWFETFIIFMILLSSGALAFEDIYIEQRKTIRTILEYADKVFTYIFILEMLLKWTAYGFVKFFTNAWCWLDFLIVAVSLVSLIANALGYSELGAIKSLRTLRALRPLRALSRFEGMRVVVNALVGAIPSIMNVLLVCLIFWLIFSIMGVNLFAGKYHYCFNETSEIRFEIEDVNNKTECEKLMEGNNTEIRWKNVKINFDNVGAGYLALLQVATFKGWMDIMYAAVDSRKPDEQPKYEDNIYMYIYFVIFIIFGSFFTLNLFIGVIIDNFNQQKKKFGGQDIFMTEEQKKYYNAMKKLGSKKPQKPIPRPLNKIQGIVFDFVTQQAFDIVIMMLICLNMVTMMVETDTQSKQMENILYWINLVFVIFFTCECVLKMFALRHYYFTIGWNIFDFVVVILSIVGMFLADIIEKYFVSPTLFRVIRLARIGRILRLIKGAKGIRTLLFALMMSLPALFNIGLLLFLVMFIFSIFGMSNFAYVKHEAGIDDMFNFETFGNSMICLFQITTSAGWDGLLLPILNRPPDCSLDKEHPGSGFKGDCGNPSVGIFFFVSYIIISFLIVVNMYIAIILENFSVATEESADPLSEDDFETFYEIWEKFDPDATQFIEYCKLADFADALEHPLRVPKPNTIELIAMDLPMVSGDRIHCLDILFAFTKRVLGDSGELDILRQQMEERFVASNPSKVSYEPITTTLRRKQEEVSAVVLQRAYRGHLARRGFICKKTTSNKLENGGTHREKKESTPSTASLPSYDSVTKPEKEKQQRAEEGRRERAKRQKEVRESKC
T2 sequence (Q9UQD0 1767-1912 limits assumed): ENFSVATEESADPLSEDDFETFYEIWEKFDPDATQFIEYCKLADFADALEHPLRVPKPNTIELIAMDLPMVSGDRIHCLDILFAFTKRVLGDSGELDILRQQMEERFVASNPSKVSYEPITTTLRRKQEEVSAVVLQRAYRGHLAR

SMILES	Kd (FGF14; Langmuir 1:1 interaction model (KD=koff/kon)) [nM]	Kd (Nav1.6) [nM]	IC50 (FGF14:Nav1.6 complex; LCA, read-out: IC50 for modulation of FGF14:Nav1.6 complex formation) [nM]	potency in the LCA dose-response studies (FGF14:Nav1.6 complex; dose-response, in words)	binding affinity to FGF14 (FGF14; in words)	ligand binding to the FGF14 R117 residue (FGF14; in words)	depolarizing shift in the voltage-dependence of steady-state inactivation of the transient Na+ current ([1]; FGF14-mediated regulatory effects on Nav1.6)	effect on voltage-dependence (V1/2) of steady-state inactivation ([1]; in words, n=6-10 cells/group)	functional effects [2]	effect on Nav channel closure / Na+ currents in MSN ([3]; Fgf14+/+ (wild-type) mice)	effect on MSN firing ([3]; Fgf14+/+ mice, n=19-20/group, p<0.0001)	effect on MSN firing / Na+ currents [4]
Cc1cccc(NC(=O)Cn2cc(CO)c3ccccc32)c1 [Compound 7605086, 2-(3-(Hydroxymethyl)-1H-indol-1-yl)-N-(m-tolyl)acetamide]	2900	13600										
CCOC(=O)c1cccc(NC(=O)Cn2cc(CO)c3ccccc32)c1 [PW01028, Ethyl 3-(2-(3-(hydroxymethyl)-1H-indol-1-yl)acetamido)benzoate]			~250	nanomolar potency	nanomolar binding affinity	evidence for ligand binding to the FGF14^R117 residue	+15 mV	markedly shifted V1/2 and steady-state inactivation to a more depolarized potential; also recorded: shifts voltage-dependence of steady-state inactivation of Na+ currents	no functional effects	potentiated MSN firing and transient Na^+ currents (INaP); also recorded: hampered Nav channel closure, prolonged Na+ currents	potentiated MSN firing; also recorded: increases firing in MSN; also recorded: potentiated intrinsic firing	inactive in MSN from Fgf14^−/− mice; also recorded: Lack of effect; also recorded: absent in Fgf14^−/− mice
